# Measurements: patent US20090068290A1, “BIFEPRUNOX DOSES FOR TREATING SCHIZOPHRENIA” (priority 2006, published 2009)
# Tests used:
# [1] = system: adult subjects with schizophrenia; experiment: Adverse events (TEAE, SAE, discontinuation, EPS-related TEAE, anticholinergic use), Clinical Study One; type: in vivo, human; conditions: for safety and tolerability: bifeprunox 5, 10, 20 mg, 6 weeks
# Method: METHODOLOGY: This was a randomized, double-blind, fixed-dose, placebo-controlled, risperidone-referenced, parallel group, multi-center study in adult subjects with schizophrenia. There were five treatment groups in this study. […] Study medication was administered once daily. After Baseline measurements were performed, the titration phase was begun. Bifeprunox treated subjects were titrated up to 5 mg, 10 mg or 20 mg according to a standardized titration schedule (Day 1: 0.125 mg, Day 2: 0.25 mg, Day 3: 0.5 mg, Day 4: 1.0 mg, Day 5: 2.0 mg, Day 6: 5.0 mg, Day 7: 10.0 mg, Day 8: 20 mg).
# [2] = system: adult subjects with schizophrenia; experiment: Calgary Depression Scale for Schizophrenia (CDSS), Clinical Study Three; type: in vivo, human; conditions: for CDSS Total Score, Trt Effect / Change from Baseline in CDSS Total Score, Mean (SD) / Change from Baseline in CDSS Total Score, Median / mean change (SD) from Baseline to Endpoint in CDSS score: LOCF; for CDSS score, treatment effect (bifeprunox, placebo): Endpoint LOCF; for mean change (SD) from Baseline to Endpoint in CDSS score: ITT
# Text: SECONDARY OBJECTIVES To assess the efficacy of bifeprunox in treating schizophrenia using the Positive Symptom sub-scale score of the PANSS, the Negative Symptom sub-scale score of the PANSS, the General Psychopathology sub-scale of the PANSS, Brief Psychiatric Rating Scale (BPRS) total score derived from the PANSS, BPRS psychosis score derived from the PANSS, the Clinical Global Impression Severity of Illness score (CGI-S), the Clinical Global Impression Improvement score (CGI-I), CGI-I responder rate, PANSS responder rate based on the PANSS total score, Calgary Depression Scale for Schizophrenia (CDSS), and Subject Satisfaction rating.
# There were four treatment arms in this study, approximately 144 subjects per arm. […] After completing the Single-Blind Placebo Lead-in Period of at least three days, bifeprunox-treated subjects were titrated from 0.25 mg up to 20 mg/day or 30 mg/day according to a standardized titration scheme over a seven- or eight-day period, respectively. When the assigned dose was reached, subjects were maintained at that dose for the remainder of the six week treatment period. […] Subjects were hospitalized (if not already inpatients) after eligibility for study entry was verified, starting from the Screening Visit until at least 10 days after Baseline. Subjects could be hospitalized longer than 10 days if considered medically necessary by the Investigator. Rating scale assessments for efficacy and abnormal movement disorders were done weekly except for Week 5. […] Subject satisfaction with study medication was assessed at Week 6.
structure (smiles),measurement,setting,value
"O=c1[nH]c2cccc(N3CCN(Cc4cccc(-c5ccccc5)c4)CC3)c2o1 [Bifeprunox, 7-[4-([1,1′-biphenyl]-3-ylmethyl)-1-piperazinyl]-2(3H)-benzoxazolone]","EXTRAPYRAMIDAL DISORDER, %",[1]; BX 5 mg,(1%)
same,"Gait Abnormal Nos, %",[1]; BX 5 mg,(<1%)
same,"Headache Nos, %",[1]; BX 5 mg,(30%)
same,"PSYCHIATRIC DISORDERS, %",[1]; BX 5 mg,(41%)
same,"Parkinsonian Rest Tremor, %",[1]; BX 5 mg,(<1%)
same,"SEDATION, %",[1]; BX 5 mg,(5%)
same,"SOMNOLENCE, %",[1]; BX 5 mg,(3%)
same,"Syncope, %",[1]; BX 5 mg,(<1%)
same,"TREMOR, %",[1]; BX 5 mg,(3%)
same,"Trismus, %",[1]; BX 5 mg,(<1%)
same,"Agitation Aggravated, %",[1]; BX 10 mg,(4%)
same,"Agitation, %",[1]; BX 10 mg,(9%)
same,"Anxiety Aggravated, %",[1]; BX 10 mg,(3%)
same,"Anxiety, %",[1]; BX 10 mg,(10%)
same,"DIZZINESS, %",[1]; BX 10 mg,(10%)
same,"DYSKINESIA, %",[1]; BX 10 mg,(<1%)
same,"Gait Abnormal Nos, %",[1]; BX 10 mg,(2%)
same,"Headache Nos, %",[1]; BX 10 mg,(35%)
same,"Hyperactivity Syndrome Aggravated, %",[1]; BX 10 mg,(<1%)
same,"Loss of Propriception, %",[1]; BX 10 mg,(<1%)
same,"Migraine Nos, %",[1]; BX 10 mg,(<1%)
same,"PSYCHIATRIC DISORDERS, %",[1]; BX 10 mg,(32%)
same,"SEDATION, %",[1]; BX 10 mg,(8%)
same,"SOMNOLENCE, %",[1]; BX 10 mg,(2%)
same,"Syncope, %",[1]; BX 10 mg,(3%)
same,"TARDIVE DYSKINESIA, %",[1]; BX 10 mg,(<1%)
same,"Adjustment Disorder Nos, %",[1]; BX 20 mg,(<1%)
same,"Affect Lability, %",[1]; BX 20 mg,(<1%)
same,"Aggression, %",[1]; BX 20 mg,(<1%)
same,"Agitation Aggravated, %",[1]; BX 20 mg,(<1%)
same,"Agitation, %",[1]; BX 20 mg,(11%)
same,"Anxiety Aggravated, %",[1]; BX 20 mg,(2%)
same,"Anxiety, %",[1]; BX 20 mg,(6%)
same,"Bruxism, %",[1]; BX 20 mg,(<1%)
same,"Confusion, %",[1]; BX 20 mg,(<1%)
same,"DIZZINESS, %",[1]; BX 20 mg,(7%)
same,"DYSARTHRIA, %",[1]; BX 20 mg,(<1%)
same,"Disturbance in Attention, %",[1]; BX 20 mg,(<1%)
same,"Dystonia, %",[1]; BX 20 mg,(<1%)
same,"EXTRAPYRAMIDAL DISORDER, %",[1]; BX 20 mg,(2%)
same,"Headache Nos, %",[1]; BX 20 mg,(25%)
same,"Hypoaesthesia, %",[1]; BX 20 mg,(<1%)
same,"Memory Impairment, %",[1]; BX 20 mg,(3%)
same,"Oculogyric Crisis, %",[1]; BX 20 mg,(<1%)
same,"PSYCHIATRIC DISORDERS, %",[1]; BX 20 mg,(40%)
same,"Parkinsonism, %",[1]; BX 20 mg,(<1%)
same,"SEDATION, %",[1]; BX 20 mg,(9%)
same,"SOMNOLENCE, %",[1]; BX 20 mg,(5%)
same,"Syncope, %",[1]; BX 20 mg,(2%)
same,"TARDIVE DYSKINESIA, %",[1]; BX 20 mg,(<1%)
same,"TREMOR, %",[1]; BX 20 mg,(<1%)
same,subjects with at least one AE that led to discontinuation,[1]; bifeprunox 5 mg,11%
same,subjects with at least one TEAE,[1]; bifeprunox 5 mg,89%
same,subjects with at least one AE that led to discontinuation,[1]; bifeprunox 10 mg,14%
same,subjects with at least one TEAE,[1]; bifeprunox 10 mg,87%
same,incidence of aggravated schizophrenia NOS (SAE),[1]; bifeprunox 20 mg,7%
same,subjects with at least one AE that led to discontinuation,[1]; bifeprunox 20 mg,10%
same,subjects with at least one TEAE,[1]; bifeprunox 20 mg,83%
same,subjects with at least one severe TEAE,[1]; bifeprunox 20 mg,10%
same,suicide attempt,[1]; bifeprunox 20 mg,2%
same,safety and tolerability,[1],safe and well tolerated at all dose levels
same,safety and tolerability,[1]; listed as bifeprunox,safe and well tolerated
same,subjects with at least one SAE,"[1]; bifeprunox groups (5, 10, 20 mg)",12-15%
same,rates of EPS,"[1]; bifeprunox, 6 weeks (Example 4)",comparable to placebo
same,"CDSS Total Score, Trt Effect","[2]; 20 mg versus placebo, Week 6, Endpoint",−0.54
same,"Change from Baseline in CDSS Total Score, Mean (SD)","[2]; 20 mg, Week 1",−0.86 (2.87)
same,"Change from Baseline in CDSS Total Score, Median","[2]; 20 mg, Week 1",0.0
same,"Change from Baseline in CDSS Total Score, Mean (SD)","[2]; 20 mg, Week 2",−1.19 (3.30)
same,"Change from Baseline in CDSS Total Score, Median","[2]; 20 mg, Week 2",−1.0
same,"Change from Baseline in CDSS Total Score, Mean (SD)","[2]; 20 mg, Week 3",−1.41 (3.72)
same,"Change from Baseline in CDSS Total Score, Median","[2]; 20 mg, Week 3",−1.0
same,"Change from Baseline in CDSS Total Score, Mean (SD)","[2]; 20 mg, Week 4",−1.35 (3.66)
same,"Change from Baseline in CDSS Total Score, Median","[2]; 20 mg, Week 4",−1.0
same,"Change from Baseline in CDSS Total Score, Mean (SD)","[2]; 20 mg, Week 6, Endpoint",−1.30 (3.85)
same,"Change from Baseline in CDSS Total Score, Median","[2]; 20 mg, Week 6, Endpoint",0.0
same,"CDSS Total Score, Trt Effect","[2]; 30 mg versus placebo, Week 6, Endpoint",−0.34
same,"Change from Baseline in CDSS Total Score, Mean (SD)","[2]; 30 mg, Week 1",−0.77 (2.63)
same,"Change from Baseline in CDSS Total Score, Median","[2]; 30 mg, Week 1",0.0
same,"Change from Baseline in CDSS Total Score, Mean (SD)","[2]; 30 mg, Week 2",−0.69 (2.97)
same,"Change from Baseline in CDSS Total Score, Median","[2]; 30 mg, Week 2",0.0
same,"Change from Baseline in CDSS Total Score, Mean (SD)","[2]; 30 mg, Week 3",−0.60 (3.10)
same,"Change from Baseline in CDSS Total Score, Median","[2]; 30 mg, Week 3",0.0
same,"Change from Baseline in CDSS Total Score, Mean (SD)","[2]; 30 mg, Week 4",−0.65 (3.07)
same,"Change from Baseline in CDSS Total Score, Median","[2]; 30 mg, Week 4",0.0
same,"Change from Baseline in CDSS Total Score, Mean (SD)","[2]; 30 mg, Week 6, Endpoint",−0.79 (3.02)
same,"Change from Baseline in CDSS Total Score, Median","[2]; 30 mg, Week 6, Endpoint",−1.0
same,"CDSS score, treatment effect (bifeprunox, placebo)",[2]; bifeprunox 20 mg (first mention),−0.54
same,mean change (SD) from Baseline to Endpoint in CDSS score,[2]; bifeprunox 20 mg,−1.30 (3.85)
same,mean change (SD) from Baseline to Endpoint in CDSS score,[2]; bifeprunox 30 mg,−0.79 (3.02)
same,"CDSS score, treatment effect (bifeprunox, placebo)",[2]; bifeprunox,−0.34
